Test results from patent US20260242349A1, “N,N'-SULFONIMIDAMIDES AS ANTICANCER, ANTIINFLAMMATORY, ANTIFIBROTIC AND NEUROPROTECTIVE AGENTS” (Atux Iskay LLC, priority 2023, published 2026).
pIC50: −log10 of the molar value.

Test system: D425 medulloblastoma cells
Test: Cancer cell viability inhibition (CellTiter-Glo Luminescent Cell Viability Assay)
Assay type: cell-based
Details: 48 hours treatment, CellTiter-Glo luminescence, test range 1-30 uM, read-out: IC50 for D425 cell growth
Description: D425 medulloblastoma cells were purchased from SigmaAldrich. D425 meduloblastoma cells were cultured in improved Dulbecco's modified Eagle's medium (DMEM) Richter's modification supplemented with 20% fetal bovine serum and 1% Penicillin-streptomycin. Incubation was performed at 37° C. and 5% CO2.
D425 cells were seeded at 3000-3500 cells/90 ul growth medium per well on 96-well tissue culture plates. Cells were incubated overnight to allow them to recover. Next day cells were treated with tested compounds and incubated for 48 hours.
Cell Proliferation assays in triplicate were performed at each concentration. Compounds test range was 1-30 uM (0, 5, 10, 15, 20, 25, and 30). The compounds were dissolved in DMSO. […]
After treatment, cells were allowed to equilibrate at room temperature for one hour. Cell proliferation was measured by Luminescence quantification using Promega CellTiter-Glo Luminescent Cell Viability Assay. […] Luminescence intensity was measured using the Spectramax i3× plate reader.
The Luminescence intensity data were analyzed using the computer software Graphpad Prism. In the absence of the compound, the luminescence intensity (Lt) in each data set was defined as 100% cell viability. The percent cell in the presence of each compound was calculated according to the following equation: % Cell=L/Lt, were L=the luminescence intensity in the presence of the compound. […]

pIC50: 5.03
SMILES: N=S(=O)(Nc1ccc(OC(F)(F)F)cc1)N1CCCC(C2c3ccccc3CCc3ccccc32)C1 (stereo not shown) [Example 2]
